Patent publication US11358711B2, “Tetracyclic heterocycle compounds useful as HIV integrase inhibitors” (Merck Sharp & Dohme Corp., priority 2019, dated 2022)
Like-named read-outs stand apart in the source and are kept apart here.

Tested on: HIV-1 (NL4-3 strain)
Assay: Assay for inhibition of HIV replication (VIKING; MT4-gag-GFP reporter cell line)
Assay type: cell-based
Experimental: This assay is a kinetic assay that employs a reporter cell line (MT4-gag-GFP) to quantify the number of new cells infected in each round of replication.
MT4-GFP cells (250,000 cells/ml) were bulk-infected with HIV-1 (NL4-3 strain) at low multiplicity of infection (MOI) in RPMI cell culture medium+10% FBS for 24 hours. Cells were then washed once in RPMI cell culture medium+10% FBS and resuspended in RPMI cell culture medium+0% or 10% or 100% normal human serum (NHS). Test compounds were serial-diluted in DMSO on an ECHO® liquid handler. The infected MT4-GFP cells were added to a 384-well poly-D-lysine coated black plate with clear bottom in which the diluted test compounds were placed. The cells were seeded at 8,000 cells per well and the final DMSO concentration was 0.4%. The infected cells (Green GFP cells) were quantified at both 24 and 48 hours post incubation using Acumen eX3. Viral reproductive ratio (R0) was determined using the number of infected cells at 48 hours divided by the number of infected cells at 24 hours. Percent viral growth inhibition was calculated by [1−(R−Rtripledrug)/(RDMSO−Rtripledrug)]*100. Compound potency IP or IC50 was determined by a 4-parameter dose response curve analysis. In vitro potency in the cell-based assay in the abscence of normal human serum (NHS) and the presence of 100% NHS.

[1] = Human immunodeficiency virus 1, NL43, MT4-GFP cells infected with HIV-1 NL4-3, 0% normal human serum (NHS), read-out: VIKING IP50 (nM) with 0% NHS
[2] = Human immunodeficiency virus 1, NL43, MT4-GFP cells infected with HIV-1 NL4-3, 100% normal human serum (NHS), read-out: VIKING IP50 (nM) with 100% NHS
[3] = MT4-GFP cells infected with HIV-1 NL4-3, 0% normal human serum (NHS), read-out: VIKING IP50 (nM) with 0% NHS
[4] = MT4-GFP cells infected with HIV-1 NL4-3, 100% normal human serum (NHS), read-out: VIKING IP50 (nM) with 100% NHS

| SMILES | IC50 [1] | IC50 [2] | IC50 [3] | IC50 [4] |
| --- | --- | --- | --- | --- |
| C[C@H]1COC2C3CCc4c(C(=O)NCc5cccc(Cl)c5F)c(=O)c(O)c(n43)C(=O)N21 (stereo partly drawn) [Compound 30] | 0.536 nM | 838 nM | – | – |
| O=C1c2c(O)c(=O)c(-c3cnn(Cc4ccc(F)cc4F)c3)c3n2C(CC3)C2OCCN12 (stereo not drawn) [Compound 46] | 34.5 nM | 222 nM | – | – |
| C[C@@H]1CCOC2C3CCc4c(C(=O)NCc5ccc(F)cc5F)c(=O)c(O)c(n43)C(=O)N21 (stereo partly drawn) [Compound 60] | 0.934 nM | 27.6 nM | – | – |
| COC1CC2C3OCCN3C(=O)c3c(O)c(=O)c(C(=O)NCc4ccc(F)cc4F)c1n32 (stereo not drawn) [Compound 72] | – | – | 0.754 nM | 8000 nM |
| CC1C2C3CCc4c(C(=O)NCc5cccc(Cl)c5F)c(=O)c(O)c(n43)C(=O)N2C[C@@H]1C (stereo partly drawn) [Compound 102] | – | – | 1.05 nM | 579 nM |
| C[C@H]1CN(S(C)(=O)=O)C2C3CCc4c(C(=O)NCc5cccc(Cl)c5F)c(=O)c(O)c(n43)C(=O)N21 (stereo partly drawn) [Compound 116] | – | – | 4.57 nM | 195 nM |
